Measurements taken from patent publication US7271181B2, “Inhibitors of p38” (Vertex Pharmaceuticals Incorporated, priority 2001, dated 2007).

Columns and labels:
[1] = biological target: T1, activated p38 (Homo sapiens, UniProt Q16539); test: p38 inhibition assay: inhibition of phosphorylation of EGF receptor peptide; format: biochemical; conditions: activated p38 5 nM, EGF receptor peptide 200 μM, ATP 100 μM, 30° C, 30 minutes
T1 construct: amplify the coding region of CSBP2 cDNA using a HeLa cell library; made in house; host or cells: Trichoplusia ni (Tn-368) High-Five insect cells, baculovirus (virus generated in Sf9)
Description: A. Inhibition of Phosphorylation of EGF Receptor Peptide
This assay was carried out in the presence of 10 mM MgCl2, 25 mM β-glycerophosphate, 10% glycerol and 100 mM HEPES buffer at pH 7.6. For a typical IC50 determination, a stock solution was prepared containing all of the above components and activated p38 (5 nM). The stock solution was aliquotted into vials. A fixed volume of DMSO or inhibitor in DMSO (final concentration of DMSO in reaction was 5%) was introduced to each vial, mixed and incubated for 15 minutes at room temperature. EGF receptor peptide, […], a phosphoryl acceptor in p38-catalyzed kinase reaction (1), was added to each vial to a final concentration of 200 μM. The kinase reaction was initiated with ATP (100 μM) and the vials were incubated at 30° C. After 30 minutes, the reactions were quenched with equal volume of 10% trifluoroacetic acid (TFA).
The phosphorylated peptide was quantified by HPLC analysis. Separation of phosphorylated peptide from the unphosphorylated peptide was achieved on a reverse phase column (Deltapak, 5 μm, C18 100D, Part no. 011795) with a binary gradient of water and acteonitrile, each containing 0.1% TFA. IC50 (concentration of inhibitor yielding 50% inhibition) was determined by plotting the percent (%) activity remaining against inhibitor concentration.

[2] = biological target: T1, activated p38; test: p38 inhibition assay: inhibition of ATPase activity; format: biochemical; conditions: ATPase activity of activated p38 (60 nM), various ATP concentrations
Description: B. Inhibition of ATPase Activity
This assay is carried out in the presence of 10 mM MgCl2, 25 mM β-glycerophosphate, 10% glycerol and 100 mM HEPES buffer at pH 7.6. For a typical Ki determination, the Km for ATP in the ATPase activity of activated p38 reaction is determined in the absence of inhibitor and in the presence of two concentrations of inhibitor. A stock solution is prepared containing all of the above components and activated p38 (60 nM). The stock solution is aliquotted into vials. A fixed volume of DMSO or inhibitor in DMSO (final concentration of DMSO in reaction was 2.5%) is introduced to each vial, mixed and incubated for 15 minutes at room temperature. The reaction is initiated by adding various concentrations of ATP and then incubated at 30° C. After 30 minutes, the reactions are quenched with 50 μl of EDTA (0.1 M, final concentration), pH 8.0. The product of p38 ATPase activity, ADP, is quantified by HPLC analysis.
Separation of ADP from ATP is achieved on a reversed phase column (Supelcosil, LC-18, 3 μm, part no. 5-8985) using a binary solvent gradient of following composition: Solvent A—0.1 M phosphate buffer containing 8 mM tetrabutylammonium hydrogen sulfate (Sigma Chemical Co., catalogue no. T-7158), Solvent B—Solvent A with 30% methanol.
Ki is determined from the rate data as a function of inhibitor and ATP concentrations.

T1 sequence (Q16539 whole entry): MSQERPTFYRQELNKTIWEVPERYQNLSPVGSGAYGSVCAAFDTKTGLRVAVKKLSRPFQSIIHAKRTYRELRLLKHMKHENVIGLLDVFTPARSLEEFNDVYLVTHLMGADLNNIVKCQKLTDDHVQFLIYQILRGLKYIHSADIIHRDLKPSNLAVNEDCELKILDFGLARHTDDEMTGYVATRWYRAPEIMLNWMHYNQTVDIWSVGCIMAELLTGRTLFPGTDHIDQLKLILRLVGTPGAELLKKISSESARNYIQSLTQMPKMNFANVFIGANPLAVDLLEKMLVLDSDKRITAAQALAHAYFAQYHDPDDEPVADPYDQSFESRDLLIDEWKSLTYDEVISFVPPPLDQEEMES

| Structure (SMILES) | IC50 [1] [µM] | Ki [2] [µM] |
| --- | --- | --- |
| CC(=O)N(c1ccc(C(=O)c2cccc(C)c2)cn1)c1c(F)cccc1F [Compound 605] | ≤ 1 | – |
| O=C(c1ccc(-c2ccccc2)cc1)c1ccc(Nc2c(F)cccc2F)nc1 [Compound 108] | ≤ 1 | – |
| N#Cc1ccc(C(=O)c2ccc(Nc3c(F)cccc3F)nc2)cc1 [Compound 103] | 1 to 10 | – |
| O=C(c1ccc(N(C(=O)Cc2ccc(F)cc2)c2c(F)cccc2F)nc1)c1ccccc1Cl [Compound 630] | – | 1 to 10 |
| CC(Oc1ccccc1)C(=O)N(c1ccc(C(=O)c2sccc2-n2cccc2)cn1)c1c(F)cccc1F (centres unmarked) [Compound 624] | ≤ 1 | – |
| CCOC(=O)C(=O)N(c1ccc(C(=O)c2cccc(C)c2)cn1)c1c(F)cccc1F [Compound 613] | ≤ 1 | – |
| COc1ccc(C(=O)c2ccc(Nc3c(F)cccc3F)nc2)cc1OC [Compound 111] | 1 to 10 | – |
| CCCCc1ccc(Nc2c(F)cccc2F)nc1 [Compound 401] | ≥ 10 | – |
| O=C(c1ccc(N(C(=O)CCc2ccccc2)c2c(F)cccc2F)nc1)c1sccc1-n1cccc1 [Compound 633] | – | 1 to 10 |
| O=C(c1ccc(Br)cc1)c1ccc(Nc2c(F)cccc2F)nc1 [Compound 106] | ≤ 1 | – |
| O=C(c1ccc(Nc2c(F)cccc2F)nc1)c1cc2ccccc2s1 [Compound 120] | 1 to 10 | – |
| Cc1cccc(C(=O)c2ccc(N(C(=O)CC(C)C)c3c(F)cccc3F)nc2)c1 [Compound 614] | ≤ 1 | – |
| CC(C)(C)c1ccc(C(=O)c2ccc(Nc3c(F)cccc3F)nc2)cc1 [Compound 105] | ≤ 1 | – |
| O=C(c1ccc(N(C(=O)OCc2ccccc2)c2c(F)cccc2F)nc1)c1ccccc1Cl [Compound 631] | – | 1 to 10 |
| Fc1cccc(F)c1Nc1ccc(Sc2ccccc2)cn1 [Compound 503] | ≤ 1 | – |
| O=S(=O)(c1ccccc1)c1ccc(Nc2c(F)cccc2F)nc1 [Compound 502] | ≥ 10 | – |
| O=C(c1ccccc1)c1ccc(N(C(=O)CCc2ccccc2)c2c(F)cccc2F)nc1 [Compound 625] | – | 1 to 10 |
| Cc1cccc(C(=O)c2ccc(N(C(=O)C(C)(C)C)c3c(F)cccc3F)nc2)c1 [Compound 604] | ≤ 1 | – |
| Cc1cccc(C(=O)c2ccc(N(C(=O)c3ccc(F)c(C(F)(F)F)c3)c3c(F)cccc3F)nc2)c1 [Compound 610] | ≤ 1 | – |
| Cc1cccc(C(=O)c2ccc(Nc3c(F)cccc3F)nc2)c1 [Compound 104] | ≤ 1 | – |
| O=C(c1ccc(Nc2c(F)cccc2F)nc1)c1cc(Cl)ccc1Cl [Compound 113] | ≤ 1 | – |

| Structure (SMILES) | IC50 [1] [µM] | Ki [2] [µM] |
| --- | --- | --- |
| OC(c1ccccc1)c1ccc(Nc2c(F)cccc2F)nc1 (centres unmarked) [Compound 201] | ≤ 1 | – |
| Cc1cccc(C(=O)c2ccc(N(C(=O)c3snnc3C)c3c(F)cccc3F)nc2)c1 [Compound 603] | 1 to 10 | – |
| Cc1cccc(C(=O)c2ccc(N(C(=O)C(C)Oc3ccccc3)c3c(F)cccc3F)nc2)c1 (centres unmarked) [Compound 612] | ≥ 10 | – |
| O=C(c1ccc(Nc2c(F)cccc2F)nc1)c1cccc(Cl)c1 [Compound 102] | ≤ 1 | – |
| O=C(c1ccc(N(C(=O)Cc2ccc(F)cc2)c2c(F)cccc2F)nc1)c1sccc1-n1cccc1 [Compound 634] | – | 1 to 10 |
| NC(=O)N(c1ccc(C#CCOc2c(Cl)cccc2Cl)cn1)c1c(F)cccc1F [Compound 402] | ≥ 10 | – |
| O=C(c1ccccc1)c1ccc(N(C(=O)Cc2ccc(F)cc2)c2c(F)cccc2F)nc1 [Compound 626] | – | 1 to 10 |
| Cc1cccc(C(=O)c2ccc(N(C(=O)c3cccc(C(F)(F)F)c3)c3c(F)cccc3F)nc2)c1 [Compound 611] | ≤ 1 | – |
| Cc1cc(C(=O)c2ccc(N(C(=O)C(C)Oc3ccccc3)c3c(F)cccc3F)nc2)ccc1Cl (centres unmarked) [Compound 617] | 1 to 10 | – |
| COc1cc(C(=O)c2ccc(Nc3c(F)cccc3F)nc2)cc(OC)c1OC [Compound 118] | 1 to 10 | – |
| NC(=O)C(c1cc(C(F)(F)F)cc(C(F)(F)F)c1)c1ccc(SCc2ccco2)nn1 (centres unmarked) [Compound 301] | 1 to 10 | – |
| COC(=O)CCC(=O)N(c1ccc(C(=O)c2ccc(Cl)c(C)c2)cn1)c1c(F)cccc1F [Compound 616] | ≥ 10 | – |
| CC(C)CC(=O)c1ccc(Nc2c(F)cccc2F)nc1 [Compound 119] | ≤ 1 | – |
| O=C(c1ccc(Nc2c(F)cccc2F)nc1)c1ccc(Cl)c(Cl)c1 [Compound 109] | ≥ 10 | – |
| CCOC(=O)C(=O)N(c1ccc(C(=O)c2cc(OC)cc(OC)c2)cn1)c1c(F)cccc1F [Compound 619] | ≤ 1 | – |
| Cc1cccc(C(=O)c2ccc(N(C(=O)C3CCCCC3)c3c(F)cccc3F)nc2)c1 [Compound 607] | ≤ 1 | – |
| O=C(c1ccc(N(C(=O)c2cccc(C(F)(F)F)c2)c2c(F)cccc2F)nc1)c1sccc1-n1cccc1 [Compound 623] | ≤ 1 | – |
| COC(=O)CCC(=O)N(c1ccc(C(=O)c2cccc(C)c2)cn1)c1c(F)cccc1F [Compound 608] | 1 to 10 | – |
| [O-][S+](c1ccccc1)c1ccc(Nc2c(F)cccc2F)nc1 (centres unmarked) [Compound 501] | ≥ 10 | – |
| O=C(c1ccc(N(C(=O)c2ccc(Br)cc2)c2c(F)cccc2F)nc1)c1sccc1-n1cccc1 [Compound 620] | ≤ 1 | – |
| COc1cc(OC)cc(C(=O)c2ccc(Nc3c(F)cccc3F)nc2)c1 [Compound 115] | ≤ 1 | – |

| Structure (SMILES) | IC50 [1] [µM] | Ki [2] [µM] |
| --- | --- | --- |
| O=C(c1ccccc1)c1ccc(N(C(=O)OCc2ccccc2)c2c(F)cccc2F)nc1 [Compound 627] | – | 1 to 10 |
| Cc1cccc(C(=O)c2ccc(N(C(=O)c3ccccc3)c3c(F)cccc3F)nc2)c1 [Compound 601] | 1 to 10 | – |
| Cc1cc(C(=O)c2ccc(Nc3c(F)cccc3F)nc2)ccc1Cl [Compound 114] | ≤ 1 | – |
| Cc1cc(C(=O)c2ccc(N(C(=O)c3ccc(Br)cc3)c3c(F)cccc3F)nc2)ccc1Cl [Compound 615] | ≥ 10 | – |
| O=C(c1ccccc1)c1ccc(Nc2c(F)cccc2F)nc1 [Compound 101, (6-(2,6-Difluorophenylamino)-pyridin-3-yl]-phenylmethanone] | ≤ 1 | – |
| Cc1cccc(C(=O)c2ccc(N(C(=O)c3ccc(Br)cc3)c3c(F)cccc3F)nc2)c1 [Compound 606] | ≥ 10 | – |
| O=C(c1ccc(N(C(=O)c2sc3ccccc3c2Cl)c2c(F)cccc2F)nc1)c1sccc1-n1cccc1 [Compound 622] | ≤ 1 | – |
| COCC(=O)N(c1ccc(C(=O)c2cccc(C)c2)cn1)c1c(F)cccc1F [Compound 602] | 1 to 10 | – |
| O=C(c1ccc(Nc2c(F)cccc2F)nc1)c1sccc1-n1cccc1 [Compound 116] | ≤ 1 | – |
| COC(=O)CCC(=O)N(c1ccc(C(=O)c2sccc2-n2cccc2)cn1)c1c(F)cccc1F [Compound 621] | 1 to 10 | – |
| O=C(c1ccc(Nc2c(F)cccc2F)nc1)c1ccccc1Cl [Compound 107] | ≤ 1 | – |
| O=C(c1ccc(N(C(=O)Oc2ccc(F)cc2)c2c(F)cccc2F)nc1)c1ccccc1Cl [Compound 632] | – | 1 to 10 |
| Cc1cccc(C(=O)c2ccc(N(C(=O)c3sc4ccccc4c3Cl)c3c(F)cccc3F)nc2)c1 [Compound 609] | 1 to 10 | – |
| O=C(c1ccccc1)c1ccc(N(C(=O)Oc2ccc(F)cc2)c2c(F)cccc2F)nc1 [Compound 628] | – | 1 to 10 |
| O=C(c1ccc(Nc2c(F)cccc2F)nc1)c1ccc2ccccc2c1 [Compound 110] | ≤ 1 | – |
| O=C(c1ccc(N(C(=O)OCc2ccccc2)c2c(F)cccc2F)nc1)c1sccc1-n1cccc1 [Compound 635] | – | 1 to 10 |
| O=C(c1ccc(N(C(=O)CCc2ccccc2)c2c(F)cccc2F)nc1)c1ccccc1Cl [Compound 629] | – | 1 to 10 |
| CCOC(=O)C(=O)N(c1ccc(C(=O)c2ccc(Cl)c(C)c2)cn1)c1c(F)cccc1F [Compound 618] | 1 to 10 | – |
| Cc1occc1C(=O)c1ccc(Nc2c(F)cccc2F)nc1 [Compound 117] | ≤ 1 | – |
| O=C(c1ccc(Cl)cc1)c1ccc(Nc2c(F)cccc2F)nc1 [Compound 112] | ≤ 1 | – |
